Results taken from US20110306580A1 (DONG WHA PHARMACEUTICAL CO ., LTD., priority 2009, published 2011).

Assays:
[1] = system: ROS17/2.8 cells; assay: Cell growth of ROS17/2.8 cells by the MTT method (formed formazan); format: cell-based, rat; conditions: for activity at 0.02 µM: Rattus norvegicus, 2×10^−5M Test Compound solution diluted 1000 fold, read-out: Amount of formed formazan, Solution 8 (Test Compound alone); for Relative index of Solution 10 (a group of a drug combination) / Amount of formed formazan, Solution 10 (a group of a drug combination): Test Compound in combination with 1α,25-dihydroxyvitamin D3
Experimental: 100 μL of a 10% FCS-αMEM comprising either DMSO and ethanol (referred to as Solution 7, hereinafter), a Test Compound solution and ethanol (referred to as Solution 8, hereinafter), a 1α,25-dihydroxyvitamin D3 solution and DMSO (referred to as Solution 9, hereinafter) or a Test Compound solution and the 1α,25-dihydroxyvitamin D3 solution (referred to as Solution 10, hereinafter) was dispensed. The ROS17/2.8 cells were inoculated to a medium at a density of 5×10^3 cells/100 μL/well. After culture of the cells for about 48 hours, the effect of Test Compound and 1α,25-dihydroxyvitamin D3 on the cell growth of the ROS17/2.8 cells was evaluated using the MTT method. Namely, after culture of the cells for about 44 hours, an MTT solution (3-[4,5-dimethylthiazol-2-yl]-2,5-diphenyltetrazolium bromide 2 mg/mL) was added in an amount of 25 μL/well, and the cells were further cultured for four hours. After the medium was removed, DMSO was added in an amount of 100 μL/well so as to dissolve the formed formazan. The amount of the formed formazan was determined by measuring the absorbance (at 560 nm) of the solution by a microplate reader.
The 10% FCS-αMEM comprising Solution 7 was prepared by diluting DMSO by 1000 fold with the 10% FCS-αMEM, and diluting ethanol by 10000 fold with the 10% FCS-αMEM. The 10% FCS-αMEM comprising Solution 8 was prepared by diluting a 2×10^−5M Test Compound solution by 1000 fold with the 10% FCS-αMEM, and diluting ethanol by 10000 fold with the 10% FCS-αMEM. The 10% FCS-αMEM comprising Solution 9 was prepared by diluting 2×10^−3M 1α,25-dihydroxyvitamin D3 solution by 10000 fold with the 10% FCS-αMEM, and diluting DMSO by 1000 fold with the 10% FCS-αMEM. The 10% FCS-αMEM comprising Solution 10 was prepared by diluting a 2×10^−5M Test Compound solution by 1000 fold with the 10% FCS-αMEM, and diluting 2×10^−3M 1α,25-dihydroxyvitamin D3 solution by 10000 fold with the 10% FCS-αMEM.
The amount of the formed formazan in each solution addition group was obtained in terms of a percentage to the average value of the amounts of formed formazan in four wells in a Solution 7 addition group. All the determined values were shown in terms of the average value±standard deviation of the four wells of each solution addition group.

[2] = system: ROS17/2.8 cells; assay: Cell growth of ROS17/2.8 cells by BrdU uptake (Cell Proliferation Biotrak ELISA); format: cell-based, rat; conditions: for Relative index of BrdU uptake amount, Solution 3 (1α,25-dihydroxyvitamin D3 alone): 10^−4M 1α,25-dihydroxyvitamin D3 solution diluted 1000 fold; for Cell growth of ROS17/2.8 cells compared with Solution 1 (FIG. 1) / Cell growth of ROS17/2.8 cells compared with Solution 1 (FIG. 2): BrdU uptake, Dunnett multiple comparison test; for Product of relative indices of single agent addition group: Bürgi's method
Experimental: ROS17/2.8 cells were inoculated to a 96-well plate at a density of 2×10^4 cells/well. An αMEM medium to which 10% fetal calf serum had been added (referred to as the 10% FCS-αMEM, hereinafter) was used as a medium. After culture of the cells overnight, the medium was removed from each well, and an αMEM medium to which 0.5% fetal calf serum had been added (referred to as the 0.5% FCS-αMEM, hereinafter) was added. After culture of the cells for about six hours, the medium was removed from each well, and a 10% FCS-αMEM comprising DMSO and ethanol (referred to as Solution 1, hereinafter), a Compound 1 solution and ethanol (referred to as Solution 2, hereinafter), a 1α,25-dihydroxyvitamin D3 solution and DMSO (referred to as Solution 3, hereinafter) or the Compound 1 solution and the 1α,25-dihydroxyvitamin D3 solution (referred to as Solution 4, hereinafter) was added. The 10% FCS-αMEM comprising Solution 1 was prepared by diluting DMSO and ethanol by 1000 fold with the 10% FCS-αMEM. The 10% FCS-αMEM comprising Solution 2 was prepared by diluting a 10^−5M Compound 1 solution and ethanol by 1000 fold with the 10% FCS-αMEM. The 10% FCS-αMEM comprising Solution 3 was prepared by diluting a 10^−4M 1α,25-dihydroxyvitamin D3 solution and DMSO by 1000 fold with the 10% FCS-αMEM. The 10% FCS-αMEM comprising Solution 4 was prepared by diluting the 10^−5M Compound 1 solution and the 10^−4M 1α,25-dihydroxyvitamin D3 solution by 1000 fold with the 10% FCS-αMEM. After culture of the cells for about 24 hours, the effect of Compound 1 and 1α,25-dihydroxyvitamin D3 on the cell growth of the ROS17/2.8 cells was evaluated using Amersham Cell Proliferation Biotrak ELISA system, version 2 (manufactured by GE healthcare bioscience K.K., Code No. RPN250). Namely, growing cells were made take 5-bromo-2′-deoxyuridine (BrdU) into the cells, and the cells were detected by ELISA using peroxidase-labeled anti-BrdU antibodies. The amount of BrdU taken into the cells was determined by measuring absorbance (450 nm) of the solution by a microplate reader.
The BrdU uptake amount in each solution addition group was obtained in terms of a percentage to the average value of the BrdU uptake amount in four wells in a Solution 1 addition group. The graph was made using the average value±standard error of the four wells of each solution addition group.
In the Bürgi's method, the value of a standard group is […] the values of each treated group to obtain a relative index. […] If they are the same, it is determined that there is an added action. In contrast, if the value of the combination treatment group is poor, it is determined that there is an antagonistic action.
ROS17/2.8 cells were inoculated to a 96-well plate at a density of 5×10^3 cells/well. The 10% FCS-αMEM was used as a medium. After culture of the cells overnight, the medium was removed from each well, and the 0.5% FCS-αMEM was added. After culture of the cells for about six hours, the medium was removed from each well, and the 10% FCS-αMEM comprising DMSO and ethanol (referred to as Solution 1, hereinafter), a Compound 11 solution and ethanol (referred to as Solution 5, hereinafter), the 1α,25-dihydroxyvitamin D3 solution and DMSO (referred to as Solution 3, hereinafter) or the Compound 11 solution and the 1α,25-dihydroxyvitamin D3 solution (referred to as Solution 6, hereinafter) was added. The 10% FCS-αMEM comprising Solution 1 was prepared by diluting DMSO and ethanol by 1000 fold with the 10% FCS-αMEM. The 10% FCS-αMEM comprising Solution 5 was prepared by diluting a 10^−5M Compound 11 solution and ethanol by 1000 fold with the 10% FCS-αMEM. The 10% FCS-αMEM comprising Solution 3 was prepared by diluting a 10^−4M 1α,25-dihydroxyvitamin D3 solution and DMSO by 1000 fold with the 10% FCS-αMEM.

[3] = amount of formed formazan, Solution 7 = 1.00
[4] = percentage to Solution 7 addition group, about 48 hours, average ± standard deviation of four wells

Compound	activity at 0.02 µM [1, 4]	Relative index of Solution 10 (a group of a drug combination) [1, 3]	Amount of formed formazan, Solution 10 (a group of a drug combination) [1, 4]	Relative index of Solution 8 (Test Compound alone) [1, 3]	other results
C=C1/C(=C\C=C2/CCC[C@]3(C)[C@@H]([C@H](C)CCCC(C)(C)O)CC[C@@H]23)C[C@@H](O)C[C@@H]1O [1α,25-dihydroxyvitamin D3, reference compound]					Relative index of Solution 9 (1α,25-dihydroxyvitamin D3 alone) [1, 3]: 1.05; Amount of formed formazan, Solution 9 (1α,25-dihydroxyvitamin D3 alone) ([1]; percentage to Solution 7 addition group, 2×10^−3M 1α,25-dihydroxyvitamin D3 solution diluted 10000 fold, about 48 hours, average ± standard deviation of four wells): 105 ± 3.1%; Relative index of BrdU uptake amount, Solution 3 (1α,25-dihydroxyvitamin D3 alone) ([2]; Example 1, 2×10^4 cells/well, about 24 hours, Solution 1 = 1.000): 1.220; Cell growth of ROS17/2.8 cells compared with Solution 1 (FIG. 1) ([2]; Example 1): not significantly different; Relative index of BrdU uptake amount, Solution 3 (1α,25-dihydroxyvitamin D3 alone) ([2]; Example 2, 5×10^3 cells/well, about 24 hours, Solution 1 = 1.000): 1.195; Cell growth of ROS17/2.8 cells compared with Solution 1 (FIG. 2) ([2]; Example 2): not significantly different
Cc1nc(-c2ccc(OCCCCCOc3ccc(/C(N)=N/O)cc3)cc2)c(C(C)C)s1 [Compound 1, N-hydroxy-4-{5-[4-(5-isopropyl-2-methyl-1,3-thiazol-4-yl)phenoxy]pentoxy}benzamidine]					Relative index of BrdU uptake amount, Solution 2 (Compound 1 alone) ([2]; Example 1, 2×10^4 cells/well, 10^−5M Compound 1 solution diluted 1000 fold, about 24 hours, Solution 1 = 1.000): 1.011; Cell growth of ROS17/2.8 cells compared with Solution 1 (FIG. 1) ([2]; Example 1): not significantly different; Product of relative indices of single agent addition group ([2]; Example 1, Compound 1 alone × 1α,25-dihydroxyvitamin D3 alone): 1.233
CCCN(CCC)c1nc(-c2ccc(OCCCCCOc3ccc(/C(N)=N/O)cc3)cc2)c(CC)s1 [Compound 11, N-hydroxy-4-{5-[4-(2-dipropylamino-5-ethyl-1,3-thiazol-4-yl)phenoxy]pentoxy}benzamidine]	103 ± 2.4%	1.15	115 ± 4.4 # %	1.03	Relative index of BrdU uptake amount, Solution 5 (Compound 11 alone) ([2]; Example 2, 5×10^3 cells/well, 10^−5M Compound 11 solution diluted 1000 fold, about 24 hours, Solution 1 = 1.000): 1.023; Cell growth of ROS17/2.8 cells compared with Solution 1 (FIG. 2) ([2]; Example 2): not significantly different; Product of relative indices of single agent addition group ([2]; Example 2, Compound 11 alone × 1α,25-dihydroxyvitamin D3 alone): 1.223
CC(C)c1nc(-c2ccc(OCCCCCOc3ccc(/C(N)=N/O)cc3)cc2)c(CCN(C(=O)c2ccncc2)C2CC2)s1 [Compound 30, N-hydroxy-4-{5-[4-(5-(2-(cyclopropyl(pyridin-4-carbonyl)amino)ethyl}-2-isopropyl-1,3-thiazol-4-yl)phenoxy]pentoxy}benzamidine]	99 ± 5.3%	1.13	113 ± 1.2 ## %	0.99	
CNC(=O)c1sc(N)nc1-c1ccc(OCCCCCOc2ccc(/C(N)=N/O)cc2)cc1 [Compound 31, N-hydroxy-4-{5-[4-(2-amino-5-(N-methylcarbamoyl)-1,3-thiazol-4-yl)phenoxy]pentoxy}benzamidine]	101 ± 2.9%	1.10	110 ± 0.4 # %	1.01	
Cc1nc(-c2ccc(OCCCCCOc3ccc(/C(N)=N/O)cc3)cc2)c(Cn2ccnc2)s1 [Compound 32, N-hydroxy-4-{5-[4-(5-(imidazol-1-ylmethyl)-2-methyl-1,3-thiazol-4-yl]phenoxy}pentoxy}benzamidine]	97 ± 3.3%	1.10	110 ± 2.4 # %	0.97	
CCN(C)c1nc(-c2ccc(OCCCCCOc3ccc(/C(N)=N/O)cc3)cc2)c(CN2CCOCC2)s1 [Compound 33, N-hydroxy-4-{5-[4-{2-ethylmethylamino-5-(morpholin-4-ylmethyl)-1,3-thiazol-4-yl)phenoxy]pentoxy}benzamidine]	106 ± 1.7%	1.13	113 ± 1.9 ## %	1.06	
Cc1nc(-c2ccc(OCCCCCOc3ccc(/C(N)=N/O)cc3)cc2)c(N(C)C)s1 [Compound 35, N-hydroxy-4-{5-[4-(5-dimethylamino-2-methyl-1,3-thiazol-4-yl)phenoxy]pentoxy}benzamidine]	101 ± 2.3%	1.12	112 ± 3.0 ## %	1.01	
